Like-named read-outs stand apart in the source and are kept apart here.
Legend:
human granzyme A = target: T1, human granzyme A (Homo sapiens, UniProt P12544); experiment: Inactivation rate of human granzyme A; assay type: biochemical; settings: Table VII; pH 7.5, 25° C; [I] 0.4 to 45 μM; read-out: kobs/[I]
T1 construct: human cytotoxic lymphocyte granzyme A; endogenous in cells; host or cells: human cytotoxic lymphocytes
T1 sequence (P12544 29-262): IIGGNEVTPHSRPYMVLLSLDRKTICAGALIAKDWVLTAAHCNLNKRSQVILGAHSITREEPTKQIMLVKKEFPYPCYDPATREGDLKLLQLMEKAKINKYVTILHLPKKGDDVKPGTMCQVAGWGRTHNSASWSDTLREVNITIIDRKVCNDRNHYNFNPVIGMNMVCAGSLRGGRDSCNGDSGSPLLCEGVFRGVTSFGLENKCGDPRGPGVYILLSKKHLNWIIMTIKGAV
Experimental: (§1) Inactivation rates of serine proteases by substituted isocoumarins were measured by the incubation method. An aliquot of inhibitor (25 or 50 μl) in Me2 SO was added to a buffered enzyme solution (0.01-2.3 μM) to initiate the inactivation. Aliquots (50 μl) were withdrawn at various intervals and the residual enzymatic activity was measured. Me2 SO concentration in the reaction mixture was 8-12% (v/v). 0.1 Hepes, 0.01M CaCl2, pH 7.5 buffer was utilized for trypsin and coagulation enzymes. 0.1M Hepes, 0.5M NaCl, pH 7.5 was utilized for other serine proteases. The inhibitor concentrations are shown in all the tables. Peptide thioesters or peptide nitroanilides with appropriate sequence were used as substrates for various serine proteases. All peptide thioester hydrolysis rates were measured with assay mixtures containing 4,4'-dithiodipyridine (ε324 =19800M^-1 cm^-1; Grasetti & Murray, Arch. Biochem. Biophys. 119, pp 41-49 (1967)). Peptide 4-nitroanilide nitroanilide hydrolysis was measured at 410 nm (ε410 =8800M^-1 cm^-1; Erlanger et al., Arch. Biochem. Biophys. 95, pp 271-278 (1961)). First order inactivation rate constant (kobs) were obtained from plots of ln (vt /vo) vs time, and the correlation coefficients were greater than 0.98.
^a Inactivation rates were measured at 0.1M Hepes, 0.01M CaCl2,
pH 7.5, 8% Me2 SO and 25° C. by incubation method. ZArg-SBzl
(74-85 μM) was used as the substrate to monitor the residual enzymatic

[1] = Prothrombin time (PT), rabbit plasma
Experimental: ^a Plasma and inhibitor were incubated at 37° C. for 1 min.,
Dade thromboplastin reagent was then added.
^b Plasma and inhibitor were incubated at 37° C. for 3 min.,
Orthobrain thromboplastin reagent was then added.

Bb = target: T2, Bb (Homo sapiens, UniProt P00751); experiment: Inactivation rate of complement fragment Bb; assay type: biochemical; settings: Table II; pH 7.5, 25° C; [I] 0.05 to 1.25 mM; read-out: kobs/[I]
T2 construct: active fragments C2a, Bb
T2 sequence (P00751 260-764 limits assumed): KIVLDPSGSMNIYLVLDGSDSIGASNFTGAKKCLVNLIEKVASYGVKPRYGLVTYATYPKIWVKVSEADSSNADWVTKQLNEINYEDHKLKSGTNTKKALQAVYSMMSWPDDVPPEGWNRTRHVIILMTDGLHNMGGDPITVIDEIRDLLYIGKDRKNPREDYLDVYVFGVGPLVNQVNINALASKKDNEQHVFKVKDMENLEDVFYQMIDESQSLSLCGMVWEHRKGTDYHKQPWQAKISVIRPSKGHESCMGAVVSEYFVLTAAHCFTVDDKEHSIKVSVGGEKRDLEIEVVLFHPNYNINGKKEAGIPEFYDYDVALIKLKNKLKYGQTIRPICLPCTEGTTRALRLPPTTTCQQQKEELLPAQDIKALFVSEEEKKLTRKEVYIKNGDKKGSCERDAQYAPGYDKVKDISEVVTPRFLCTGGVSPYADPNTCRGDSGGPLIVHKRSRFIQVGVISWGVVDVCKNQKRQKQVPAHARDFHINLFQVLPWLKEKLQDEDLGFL
Experimental: as §1
^a Conditions were 0.1M Hepes, 0.5M NaCl, pH 7.5, 8-10% Me2 SO
and 25° C. Inactivation rates were measured by incubation method.
Enzyme concentrations were as follows: protein D, 1-9 μM; C2, 0.7-1
μM; B, 1.8 μM; Bb, 0.3-0.8 μM; Cl^- s, 0.07 μM; Cl^-

human factor XIIa = target: T3, human factor XIIa (Homo sapiens, UniProt P00748); experiment: Inactivation rate of human factor XIIa; assay type: biochemical; settings: pH 7.5, 25° C, read-out: kobs/[I]
T3 construct: human factor XIIa
T3 sequence (P00748 373-615 limits assumed): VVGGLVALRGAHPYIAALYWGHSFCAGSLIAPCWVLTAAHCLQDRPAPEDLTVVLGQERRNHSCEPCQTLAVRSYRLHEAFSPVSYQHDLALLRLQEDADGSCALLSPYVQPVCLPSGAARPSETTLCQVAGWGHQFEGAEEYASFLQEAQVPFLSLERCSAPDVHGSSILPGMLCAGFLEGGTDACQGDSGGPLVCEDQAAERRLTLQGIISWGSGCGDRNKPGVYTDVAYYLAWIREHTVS
T3 sequence (P00748 20-372 partner limits assumed): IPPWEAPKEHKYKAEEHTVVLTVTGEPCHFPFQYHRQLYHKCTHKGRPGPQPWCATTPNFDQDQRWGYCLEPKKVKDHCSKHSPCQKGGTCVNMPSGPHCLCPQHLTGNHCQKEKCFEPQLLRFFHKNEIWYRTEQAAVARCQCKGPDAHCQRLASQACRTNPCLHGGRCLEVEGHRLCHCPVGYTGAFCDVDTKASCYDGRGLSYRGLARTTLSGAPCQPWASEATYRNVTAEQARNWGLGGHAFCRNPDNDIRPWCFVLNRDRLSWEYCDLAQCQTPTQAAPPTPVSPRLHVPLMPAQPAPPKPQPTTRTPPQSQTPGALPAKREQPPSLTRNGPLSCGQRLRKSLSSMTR
How it was run: (§2)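 Enzyme 0.01-2.3 μM, 0.1M Hepes/0.01M CaCl2 pH 7.5, 8-12% Me2SO, 25° C; inhibitor added, timed aliquots assayed for remaining activity; kobs = slope of ln(vt/vo) vs t.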

human factor Xa = target: T4, human factor Xa (Homo sapiens, UniProt P00742); experiment: Inactivation rate of human factor Xa; assay type: biochemical; settings: pH 7.5, 25° C, read-out: kobs/[I]
T4 construct: human factor Xa
T4 sequence (P00742 235-488 limits assumed): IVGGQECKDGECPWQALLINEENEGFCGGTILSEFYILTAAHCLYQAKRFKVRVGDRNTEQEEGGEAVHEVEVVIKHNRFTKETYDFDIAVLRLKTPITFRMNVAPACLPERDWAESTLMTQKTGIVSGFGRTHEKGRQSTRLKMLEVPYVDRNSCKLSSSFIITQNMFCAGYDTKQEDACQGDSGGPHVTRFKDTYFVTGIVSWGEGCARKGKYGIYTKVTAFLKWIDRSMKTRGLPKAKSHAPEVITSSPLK
T4 sequence (P00742 41-179 partner limits assumed): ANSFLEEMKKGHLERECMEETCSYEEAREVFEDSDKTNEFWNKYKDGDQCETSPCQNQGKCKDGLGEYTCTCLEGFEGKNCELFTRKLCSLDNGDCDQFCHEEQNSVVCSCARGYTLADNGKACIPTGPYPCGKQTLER
How it was run: as §2

O=c1oc(Cl)c(Cl)c2ccccc12 [3,4-dichloroisocoumarin, reference compound]
kinact/KI (human granzyme A): 50 M⁻¹ s⁻¹
PT ([1]; [I] 33 μM, 3 min, Orthobrain thromboplastin): 14.3 s

N=C(N)SCCOc1oc(=O)c2ccccc2c1Cl [3-(2-isothiureidoethoxy)-4-chloroisocoumarin]
kinact/KI (Bb): 15 M⁻¹ s⁻¹
kinact/KI (human factor XIIa; Table I, [I] 3 to 330 μM): 39000 M⁻¹ s⁻¹

NCCCOc1oc(=O)c2ccccc2c1Cl [3-(3-aminopropoxy)-4-chloroisocoumarin]
kinact/KI (human factor XIIa; Table I, [I] 3 to 330 μM): 190 M⁻¹ s⁻¹
kinact/KI (human granzyme A): 2010 M⁻¹ s⁻¹

N=C(N)SCCCOc1oc(=O)c2ccccc2c1Cl [3-(3-isothiureidopropoxy)-4-chloroisocoumarin]
kinact/KI (Bb): 0.8 M⁻¹ s⁻¹
kinact/KI (human factor XIIa; Table I, [I] 3 to 330 μM): 27000 M⁻¹ s⁻¹
kinact/KI (human granzyme A): 18400 M⁻¹ s⁻¹

N=C(N)SCCCOc1oc(=O)c2cc(N)ccc2c1Cl [7-amino-4-chloro-3-(3-isothiureidopropoxy)isocoumarin]
kinact/KI (human factor Xa; Table I, [I] 5 to 105 μM): 60 M⁻¹ s⁻¹
kinact/KI (human factor XIIa; Table I, [I] 3 to 330 μM): 6200 M⁻¹ s⁻¹
kinact/KI (human granzyme A): 6750 M⁻¹ s⁻¹
PT ([1]; [I] 33 μM, 1 min, Dade thromboplastin): 13.7 s
PT ([1]; [I] 131 μM, 1 min, Dade thromboplastin): 62.0 s

CCOc1oc(=O)c2cc(NC(=N)N)ccc2c1Cl [7-guanidino-3-ethoxy-4-chloroisocoumarin, 7-guanidino-4-chloro-3-ethoxyisocoumarin]
kinact/KI (Bb): 95 M⁻¹ s⁻¹
kinact/KI (human factor Xa; Table I, [I] 5 to 105 μM): 11000 M⁻¹ s⁻¹
kinact/KI (human factor XIIa; Table I, [I] 3 to 330 μM): 22000 M⁻¹ s⁻¹
kinact/KI (human granzyme A): 6850 M⁻¹ s⁻¹
PT ([1]; [I] 15 μM, 1 min, Dade thromboplastin): 14.2 s
PT ([1]; [I] 31 μM, 1 min, Dade thromboplastin): 27.4 s
PT ([1]; [I] 31 μM, 3 min, Orthobrain thromboplastin): 17.2 s
PT ([1]; [I] 124 μM, 3 min, Orthobrain thromboplastin): > 120 s

COc1cc2ccc(NC(=N)N)cc2c(=O)o1 [7-guanidino-3-methoxyisocoumarin]
kinact/KI (human factor XIIa; Table I, [I] 3 to 330 μM): 520 M⁻¹ s⁻¹

N=C(N)Nc1ccc2c(Cl)c(OCCc3ccccc3)oc(=O)c2c1 [7-guanidino-4-chloro-3-(2-phenylethoxy)isocoumarin]
kinact/KI (Bb): 58 M⁻¹ s⁻¹
kinact/KI (human factor Xa; Table I, [I] 5 to 105 μM): 11000 M⁻¹ s⁻¹
kinact/KI (human factor XIIa; Table I, [I] 3 to 330 μM): 26000 M⁻¹ s⁻¹

COc1oc(=O)c2cc(NC(=N)N)ccc2c1Cl [7-guanidino-4-chloro-3-methoxyisocoumarin]
kinact/KI (Bb): 74 M⁻¹ s⁻¹
kinact/KI (human factor Xa; Table I, [I] 5 to 105 μM): 11000 M⁻¹ s⁻¹
kinact/KI (human factor XIIa; Table I, [I] 3 to 330 μM): 20000 M⁻¹ s⁻¹

N=C(N)SCCOc1oc(=O)c2cc(NC(=O)Nc3ccccc3)ccc2c1Cl [PhNHCONH-CiTEtOIC, 7-(phenylcarbamoylamino)-4-chloro-3-(2-isothiureidoethoxy)isocoumarin]
kinact/KI (human factor Xa; Table VIII, [I] 3.6-44 μM): 4740 M⁻¹ s⁻¹
kinact/KI (human factor XIIa; Table VIII, [I] 3.6-4.9 μM): 50000 M⁻¹ s⁻¹

Reference: patent publication US5324648A, “Substituted isocoumarins as serine protease inhibitors and anti-inflammatory agents” (Georgia Tech Research Corporation, priority 1992, dated 1994)
